In publication PMC10065799, “High-throughput profiling of sequence recognition by tyrosine kinases and SH2 domains using bacterial peptide display” (eLife, 2023):

Assays:
Assay in all cases: pTyr-Var library bacterial peptide display kinase screen (enrichment scores)
c-Abl kinase domain = target: T1, c-Abl kinase domain (Mus musculus, UniProt P00520); format: biochemical;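 further: log2 fold change in enrichment of variant over reference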
T1 sequence (P00520 242-493 limits assumed): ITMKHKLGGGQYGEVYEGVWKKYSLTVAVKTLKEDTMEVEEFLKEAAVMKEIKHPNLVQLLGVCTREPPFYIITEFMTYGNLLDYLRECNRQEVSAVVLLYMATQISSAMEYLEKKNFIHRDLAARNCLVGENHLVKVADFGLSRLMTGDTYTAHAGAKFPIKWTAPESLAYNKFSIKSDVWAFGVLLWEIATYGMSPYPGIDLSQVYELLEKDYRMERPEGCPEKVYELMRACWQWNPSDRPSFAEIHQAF

EPHB2 kinase domain = format: biochemical, human; conditions: sheet EPHB2
c-Src kinase domain = c-Src kinase domain (Homo sapiens, UniProt P12931); format: biochemical; conditions: sheet "Src";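 further: log2 fold change in enrichment of variant over reference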
Fer kinase domain = format: biochemical, mouse; conditions: sheet "Fer"
EPHB1 kinase domain = format: biochemical, human; conditions: for Screen (variant relative to reference peptide, measured in the pTyr-Var library screen): sheet "EPHB1", variant seq vs reference seq, bacterial peptide display enrichment; for Screen: sheet EPHB1, effect of the variant peptide relative to its reference peptide in the pTyr-Var library screen (enrichment scores)
[1] = fig5-data2, sheet "Abl", Screen for the variant/reference peptide pair, pTyr-Var library
[2] = effect of the variant relative to its reference peptide in the pTyr-Var library screen
[3] = sheet "Abl", effect of variant peptide relative to its reference peptide in pTyr-Var library screen (enrichment)
[4] = variant peptide versus its reference peptide in the pTyr-Var library screen
[5] = value of the variant peptide against its reference peptide in the pTyr-Var library screen with Fer
[6] = effect of the variant peptide relative to its reference peptide in the pTyr-Var library screen
[7] = effect of variant peptide relative to its reference peptide in the pTyr-Var library screen (enrichment scores)
[8] = variant peptide relative to its reference peptide, pTyr-Var library screen enrichment

In the case of PFQGAYLKINK [MYO1B_Y967_E969K], the Screen (c-Abl kinase domain; [1]) was 1.339.
REGDKYVSHGA [ASS1_Y113_A111D] gave a Screen (c-Abl kinase domain; [1]) of 0.7285.
Work on QQIFTYDSGIH [JUP_Y22_T19I_YF] yielded a Screen (c-Abl kinase domain; [1]) of 1.325.
In the case of LSCLAYSGKDA [FXN_Y205_S202C], the Screen (c-Abl kinase domain; [1]) was -1.545.
In the case of VPHECYAKVFD [ALB_Y394_D389V], the Screen (c-Abl kinase domain; [1]) was 0.9527.
NCLRVYVAGRF [CRB1_Y711_E710V] was tested, and the Screen (c-Abl kinase domain; [1]) was -0.2235.
IGMLIYFARKA [VCAM1_Y718_I716L] showed a Screen (EPHB2 kinase domain; [2]) of -1.317.
Work on ADDSFYTVRSA [ZAP70_Y493_A495V_YF] yielded a Screen (c-Abl kinase domain; [3]) of -3.301 and a Screen (c-Src kinase domain; [4]) of 1.093.
In the case of KAWTIYHPEDS [ZBP1_Y165_R166H], the Screen (c-Abl kinase domain; [3]) was 3.304.
In the case of PGDGEYFTLQI [TP53_Y327_L323G], the Screen (c-Src kinase domain; [4]) was 0.07795.
In the case of FGCGMYSHLQG [LGR4_Y848_D844G_YF], the Screen (Fer kinase domain; [5]) was -1.105 and the Screen (c-Src kinase domain; [6]) was -0.3661.
VGAKTYKMSMA [CPS1_Y309_A304V] was tested, and the Screen (c-Abl kinase domain; [1]) was 0.4399.
LGKLTYPVGFW [NTHL1_Y177_I176T] was tested, and the Screen (EPHB2 kinase domain; [7]) was 0.6291.
Sequence FDNPIYQKTTE [LDLR_Y828_V827I] has a Screen (c-Abl kinase domain; [1]) of 2.749 and a Screen (Fer kinase domain; [5]) of 1.939.
Work on AHARMYGVLPW [PLP1_Y207_D203H] yielded a Screen (EPHB2 kinase domain; [7]) of -2.408 and a Screen (c-Src kinase domain; [4]) of -1.491.
For HFPDVYAWEQL [ALX3_Y181_R183W_YF], the Screen (Fer kinase domain; [5]) was 4.265 and the Screen (c-Src kinase domain; [6]) was 2.591.
For HVKHNYECLVF [XRCC5_Y416_I412V_YF], the “Screen (variant relative to reference peptide, measured in the pTyr-Var library screen)” value (EPHB1 kinase domain) was -0.4743.
LADKPYTFEFF [FXN_Y118_D122Y_YF] gave a Screen (EPHB2 kinase domain; [7]) of -0.8967, a Screen (Fer kinase domain; [5]) of -0.3661 and a Screen (c-Src kinase domain; [6]) of -0.4395.
NHFKRYNLCAE [PTEN_Y68_I67R_YF] gave a Screen (c-Src kinase domain; [4]) of -2.549.
SSWPDYVRPLP [HSPB1_Y54_G53D] showed a Screen (EPHB1 kinase domain) of 1.698.
LNPLIYTLRNA [OR4C46_Y285_K288R] gave a Screen (c-Src kinase domain; [4]) of 1.167.
With SRNSKYNAEST [PSEN1_Y315_K311R] the Screen (c-Abl kinase domain; [1]) was -1.342.
SVETPYVSVTF [NDRG2_Y47_G48V] gave a Screen (Fer kinase domain; [5]) of -1.711 and a Screen (c-Src kinase domain; [4]) of -1.163.
RLLVVYTWTQR [HBB_Y36_P37T] gave a Screen (c-Abl kinase domain; [1]) of 0.544.
CEAIEYLESKQ [BTK_Y511_M509I] showed a Screen (c-Abl kinase domain; [1]) of 1.454.
VEEDTYTMPST [PTK2_Y407_D402V] showed a Screen (c-Src kinase domain; [4]) of 0.7074.
In the case of PLDVEYFTLQI [TP53_Y327_G325V], the Screen (c-Abl kinase domain; [3]) was -0.7642 and the Screen (c-Src kinase domain; [4]) was -0.5097.
With LESILYESSVV [TRPV4_Y91_T89I] the Screen (Fer kinase domain; [8]) was -0.3592 and the Screen (c-Src kinase domain; [4]) was -0.6958.
Sequence KLSHLYQDHMQ [WNT5A_Y86_C83S] has a Screen (c-Abl kinase domain; [3]) of -1.969.
With AALLNYKAGRD [GRIN2A_Y737_V734L] the Screen (c-Abl kinase domain; [1]) was -0.3155.
Sequence AEDKPYAELWT [MPI_Y46_M51T] has a Screen (Fer kinase domain; [5]) of -0.5845 and a Screen (c-Src kinase domain; [6]) of -0.4439.
QFKGKYLAKHN [CASK_Y712_D710G_YF] was tested, and the Screen (c-Abl kinase domain; [1]) was 0.5412.
Sequence LDFPEYNGVDR [CASQ1_Y43_D44N] has a Screen (c-Src kinase domain; [6]) of 0.514.
EACPSYSHVVL [CHST6_Y168_R166P] showed a Screen (Fer kinase domain; [5]) of 2.885.
With FVFSFYHAFSG [ACTN4_Y265_S262F_YF] the Screen (EPHB1 kinase domain) was -0.8684 and the Screen (c-Src kinase domain; [6]) was -2.513.
PVQAAYQKVEA [HBB_Y131_V135E] gave a Screen (c-Abl kinase domain; [1]) of -0.9436.
With FEKFLYFLPAS [DYNC2H1_Y346_H341Y_YF] the Screen (EPHB1 kinase domain) was -0.7762.
With GADAIYDHVNE [UQCR10_Y44_I47V] the Screen (EPHB2 kinase domain; [2]) was 0.825, the Screen (Fer kinase domain; [8]) was 0.2964 and the Screen (c-Src kinase domain; [4]) was -0.3881.
WAMPAYNRSKL [WWOX_Y293_L291P] showed a Screen (c-Abl kinase domain; [3]) of 4.174.
Work on NHFKIYNLFAE [PTEN_Y68_C71Y_YF] yielded a Screen (c-Src kinase domain; [4]) of -1.146.
Sequence VIVRMYDFHVL [RPF2_Y109_G106V_YF] has a Screen (EPHB2 kinase domain; [7]) of 1.263 and a Screen (Fer kinase domain; [8]) of -0.9951.
For GGSDCYGSLRP [MYLK_Y846_R845C], the Screen (c-Src kinase domain; [4]) was 2.609.
With PVFEVYPLLNC [GATA1_Y78_Q76E] the Screen (c-Abl kinase domain; [1]) was 0.8954.
Work on PLQKIYNFNVL [SLC4A1_Y553_T552I_YF] yielded a Screen (c-Src kinase domain; [4]) of 2.735.
Sequence LERFIYNRQEF [HLA-DPB1_Y59_E62Q_YF] has a Screen (c-Src kinase domain; [6]) of -1.248.
KKFPDYIQSAM [SGMS2_Y59_I62S_YF] was tested, and the “Screen (variant relative to reference peptide, measured in the pTyr-Var library screen)” value (EPHB1 kinase domain) was -3.574.
ACEVLYNIVFM [NCF2_Y125_A128V] gave a Screen (Fer kinase domain; [5]) of 0.5953 and a Screen (c-Src kinase domain; [4]) of 0.004351.
Sequence FLENFYDLEKD [MMP3_Y42_K45E_YF] has a Screen (c-Src kinase domain; [6]) of 0.2474.
Work on CKSIHYDLVFL [COL22A1_Y37_V35I] yielded a Screen (Fer kinase domain; [5]) of -0.07246.
LIGRGYDDPEV [HSPA9_Y128_R127G] showed a Screen (EPHB2 kinase domain; [7]) of -1.099.
In the case of IVRSLYEDVED [VHL_Y185_L188V], the Screen (c-Abl kinase domain; [3]) was 2.296 and the Screen (Fer kinase domain; [8]) was 0.543.
